Consider 7 compounds from PubChem BioAssay (NCI).

SMILES strings stand for the structures.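 Compound exposure: 48 hours, 5 concentrations, 96-well plates. GI50 is the concentration that inhibits growth by half. TGI marks complete inhibition of growth.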 Where only a bound is given, the exact number is not on record here.

Test systems include A498 renal; OVCAR-3 ovarian; MALME-3M melanoma; MDA-MB-231 breast; SK-MEL-5 melanoma; OVCAR-5 ovarian; A549 NSCLC; SK-MEL-2 melanoma; NCI-H226 lung; HCT-116 colon.
What all share (experiment): NCI anticancer screen, dose series, 48 h

As for `CSc1nc2c(c(=O)n1C)C(c1ccccc1)C1=C(N2)/C(=C/c2ccccc2)CCC1` (stereo not given), the GI50 was 16.8 µM in the test on A498 renal; 4.41 µM in the test with OVCAR-3 ovarian; 5.87 µM in the test with MALME-3M melanoma; 17.4 µM in the test on MDA-MB-231 breast; 3.58 µM in the test with SK-MEL-5 melanoma; 71.7 µM in the test with OVCAR-5 ovarian. Moreover, the GI50 was greater than 100 µM in the test with A549 NSCLC, 9.48 µM in the test on SK-MEL-2 melanoma, 18.4 µM in the test with NCI-H226 lung and 3.41 µM in the test with HCT-116 colon. The TGI is 88.4 µM in the test on A498 renal; greater than 100 µM with OVCAR-3 ovarian; greater than 100 µM in the test with MALME-3M melanoma; greater than 100 µM in the test with MDA-MB-231 breast; greater than 100 µM in the test on SK-MEL-5 melanoma; greater than 100 µM with OVCAR-5 ovarian. Besides, the TGI is greater than 100 µM in the test on A549 NSCLC, 42.6 µM with SK-MEL-2 melanoma, greater than 100 µM with NCI-H226 lung and 14.3 µM in the test with HCT-116 colon.

With `FC(F)(F)c1cccc(-c2[nH]ncc2-c2nnnn2-c2ccccc2)c1`, the GI50 in the test with A498 renal was 4.28 µM; with OVCAR-3 ovarian it was 2.97 µM; with MALME-3M melanoma it was 3.66 µM; with MDA-MB-231 breast it was 3.2 µM; in the test on SK-MEL-5 melanoma it was 3.01 µM; with OVCAR-5 ovarian, 10.6 µM. In addition, the GI50 with A549 NSCLC is 4.54 µM; with SK-MEL-2 melanoma, 12.8 µM; with NCI-H226 lung, 13.2 µM; with HCT-116 colon it was 4.7 µM. The TGI came out at 17.8 µM in the test on A498 renal; 10.9 µM in the test with OVCAR-3 ovarian; 13.3 µM in the test with MALME-3M melanoma; 12.7 µM in the test on MDA-MB-231 breast; 10.6 µM with SK-MEL-5 melanoma; 31.2 µM in the test on OVCAR-5 ovarian. Also, the TGI in the test on A549 NSCLC amounted to 84.9 µM; in the test with SK-MEL-2 melanoma, 31 µM; in the test on NCI-H226 lung, 31.1 µM; in the test with HCT-116 colon, 19.4 µM.

As to `CSc1ccc(C(=O)/C=C/c2ccc(Cl)cc2Cl)cc1`, the GI50 in the test with A498 renal was 20.3 µM; in the test with OVCAR-3 ovarian, 21.9 µM; with MALME-3M melanoma it was 29.1 µM; with MDA-MB-231 breast, 27.7 µM; in the test on SK-MEL-5 melanoma, 21.9 µM; with OVCAR-5 ovarian it was 21.6 µM. Further, the GI50 in the test with A549 NSCLC is 17.7 µM; in the test on SK-MEL-2 melanoma it was 17.6 µM; in the test with NCI-H226 lung, 26 µM; in the test with HCT-116 colon, 3.91 µM. The TGI with A498 renal was 51.3 µM; in the test with OVCAR-3 ovarian, 49.2 µM; in the test on MALME-3M melanoma, greater than 100 µM; in the test with MDA-MB-231 breast, 86.9 µM; with SK-MEL-5 melanoma, 59 µM; with OVCAR-5 ovarian it was 52.2 µM. Further, the TGI with A549 NSCLC was determined as 40.5 µM; in the test with SK-MEL-2 melanoma, 59.3 µM; with NCI-H226 lung, 82.9 µM; with HCT-116 colon, 14.9 µM.

As for `CC(C)(C)[Si](C)(C)OC1[C@@H](COC(=O)NC(=O)CCl)O[C@@H](n2cnc3c(N)ncnc32)[C@H]1O[Si](C)(C)C(C)(C)C` (stereo not given in full), the GI50 in the test on A498 renal was 6.58 µM; with OVCAR-3 ovarian it was 2.66 µM; in the test with MALME-3M melanoma, 0.984 µM; with MDA-MB-231 breast, 1.12 µM; with SK-MEL-5 melanoma it was 1.82 µM; in the test with OVCAR-5 ovarian, 3.11 µM. In addition, the GI50 was 4.94 µM in the test on A549 NSCLC, 6.72 µM with SK-MEL-2 melanoma, 1.13 µM in the test on NCI-H226 lung and 1.53 µM in the test on HCT-116 colon. Further, the TGI amounted to 13.1 µM in the test with A498 renal; 8.32 µM in the test with OVCAR-3 ovarian; 2.01 µM with MALME-3M melanoma; 2.76 µM with MDA-MB-231 breast; 5.02 µM with SK-MEL-5 melanoma; 9.55 µM in the test on OVCAR-5 ovarian. Moreover, the TGI in the test on A549 NSCLC was 11.9 µM; with SK-MEL-2 melanoma, 13.8 µM; in the test on NCI-H226 lung it was 2.3 µM; in the test with HCT-116 colon it was 5.15 µM.

Consider `Cc1cc(N2CCOCC2)nc(NCc2cc(Nc3ccnc4cc(Cl)ccc34)ccc2F)n1`, for which the GI50 was 0.894 µM in the test with A498 renal; 1.72 µM with OVCAR-3 ovarian; 1.98 µM in the test on MALME-3M melanoma; 1.88 µM with MDA-MB-231 breast; 1.56 µM in the test on SK-MEL-5 melanoma; 1.62 µM in the test on OVCAR-5 ovarian. Also, the GI50 with A549 NSCLC was 1.87 µM; in the test with SK-MEL-2 melanoma, 1.95 µM; with NCI-H226 lung it was 2.06 µM; with HCT-116 colon, 1.51 µM. Also, the TGI was found to be 2.25 µM in the test on A498 renal; 3.16 µM with OVCAR-3 ovarian; 3.68 µM with MALME-3M melanoma; 3.63 µM in the test with MDA-MB-231 breast; 2.94 µM in the test with SK-MEL-5 melanoma; 3.16 µM in the test on OVCAR-5 ovarian. The TGI with A549 NSCLC came out at 3.6 µM; with SK-MEL-2 melanoma, 3.61 µM; in the test with NCI-H226 lung it was 4.31 µM; in the test on HCT-116 colon it was 3.08 µM.

With `CN(C)c1ccc2[nH]c3c(C(N)=O)cc(=O)c(=O)c=3oc2c1`, the GI50 was 2.68 µM in the test with A498 renal; 0.508 µM in the test on OVCAR-3 ovarian; 1.81 µM in the test on MALME-3M melanoma; 1.7 µM with MDA-MB-231 breast; 1.8 µM with SK-MEL-5 melanoma; 3.36 µM in the test on OVCAR-5 ovarian. Also, the GI50 with A549 NSCLC is 3.19 µM; in the test on SK-MEL-2 melanoma, 1.87 µM; in the test on NCI-H226 lung, 4.74 µM; in the test with HCT-116 colon, 0.304 µM. The TGI in the test on A498 renal came out at 9.5 µM; in the test with OVCAR-3 ovarian, 6.85 µM; in the test with MALME-3M melanoma it was 4.45 µM; with MDA-MB-231 breast, 8.67 µM; with SK-MEL-5 melanoma, 3.55 µM; in the test on OVCAR-5 ovarian, 17.2 µM. Besides, the TGI is greater than 100 µM in the test with A549 NSCLC, 5.34 µM in the test with SK-MEL-2 melanoma, greater than 100 µM in the test on NCI-H226 lung and 1.22 µM in the test with HCT-116 colon.

As to `O=C1/C(=C/c2ccc(C(F)(F)F)cc2)COc2ccc(O)c(O)c21`, the GI50 was 2.11 µM in the test with A498 renal; 0.514 µM in the test on OVCAR-3 ovarian; 1.55 µM in the test on MALME-3M melanoma; 1.18 µM in the test on MDA-MB-231 breast; 1.73 µM with SK-MEL-5 melanoma; 1.6 µM with OVCAR-5 ovarian. Besides, the GI50 is 1.51 µM in the test with A549 NSCLC, 1.83 µM in the test with SK-MEL-2 melanoma, 1.59 µM with NCI-H226 lung and 1.35 µM in the test with HCT-116 colon. For the same compound, the TGI with A498 renal was determined as 4.16 µM; with OVCAR-3 ovarian it was 1.84 µM; in the test with MALME-3M melanoma it was 3.3 µM; in the test on MDA-MB-231 breast, 2.65 µM; in the test on SK-MEL-5 melanoma, 3.21 µM; in the test with OVCAR-5 ovarian, 3.09 µM. For the same compound, the TGI was 3.15 µM in the test on A549 NSCLC, 3.99 µM in the test on SK-MEL-2 melanoma, 3.09 µM in the test with NCI-H226 lung and 3.12 µM in the test with HCT-116 colon.
